Results as given in BindingDB's records for patent US11648254 (Kumquat Biosciences, 2023).

Each compound was assayed against T1, Son of sevenless homolog 1 (Homo sapiens, UniProt Q07889) (assay: Ras-SOS Interaction Assay).
T1 sequence (Q07889 whole entry): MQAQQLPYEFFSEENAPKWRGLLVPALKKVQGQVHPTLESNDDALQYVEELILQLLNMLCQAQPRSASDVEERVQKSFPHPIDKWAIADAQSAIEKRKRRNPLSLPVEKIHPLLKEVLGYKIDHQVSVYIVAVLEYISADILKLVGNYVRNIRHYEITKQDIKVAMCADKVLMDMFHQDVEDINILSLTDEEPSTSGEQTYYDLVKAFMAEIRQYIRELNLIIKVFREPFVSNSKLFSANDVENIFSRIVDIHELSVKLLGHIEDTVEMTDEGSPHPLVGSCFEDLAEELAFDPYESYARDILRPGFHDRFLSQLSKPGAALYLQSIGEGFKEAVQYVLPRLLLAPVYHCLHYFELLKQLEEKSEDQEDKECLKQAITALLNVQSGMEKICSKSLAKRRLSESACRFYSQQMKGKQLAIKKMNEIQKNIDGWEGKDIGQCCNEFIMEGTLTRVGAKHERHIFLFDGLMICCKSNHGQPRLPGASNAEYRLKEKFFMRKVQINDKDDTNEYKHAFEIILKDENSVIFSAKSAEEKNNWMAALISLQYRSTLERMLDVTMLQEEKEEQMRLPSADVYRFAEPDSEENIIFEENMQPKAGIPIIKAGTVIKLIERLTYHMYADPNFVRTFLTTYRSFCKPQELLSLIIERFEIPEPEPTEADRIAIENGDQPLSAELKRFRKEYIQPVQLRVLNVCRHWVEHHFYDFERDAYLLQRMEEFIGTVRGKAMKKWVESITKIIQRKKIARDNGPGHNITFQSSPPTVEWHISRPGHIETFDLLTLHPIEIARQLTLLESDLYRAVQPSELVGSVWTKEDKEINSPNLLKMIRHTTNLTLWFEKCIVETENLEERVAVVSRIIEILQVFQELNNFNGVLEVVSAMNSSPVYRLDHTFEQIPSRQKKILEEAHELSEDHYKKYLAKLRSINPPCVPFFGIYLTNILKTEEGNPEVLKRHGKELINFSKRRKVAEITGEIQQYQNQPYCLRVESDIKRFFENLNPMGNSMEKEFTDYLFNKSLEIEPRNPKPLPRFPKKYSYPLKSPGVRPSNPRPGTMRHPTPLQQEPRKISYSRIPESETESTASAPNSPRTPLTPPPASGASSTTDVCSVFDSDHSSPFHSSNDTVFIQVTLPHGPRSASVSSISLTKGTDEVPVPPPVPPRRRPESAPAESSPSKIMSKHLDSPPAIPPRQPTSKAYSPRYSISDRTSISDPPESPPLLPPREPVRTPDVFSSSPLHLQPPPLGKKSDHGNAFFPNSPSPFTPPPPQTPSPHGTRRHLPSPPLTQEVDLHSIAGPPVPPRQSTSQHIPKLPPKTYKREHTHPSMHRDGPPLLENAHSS
From the text: The ability of any compound of the present disclosure to reduce a Ras protein signaling output by, e.g., interfering or disrupting interaction (or binding) between SOS1 and a Ras protein can be assessed in vitro. For example, the equilibrium interaction of human SOS1 (hSOS1) with human wildtype Kras or K-Ras mutant (e.g., hK-Ras G12C mutant, or hK-RasG12C) can be assessed as a proxy or an indication for a subject compound's ability to inhibit SOS. Detection of such interaction is achieved by measuring homogenous time-resolved fluorescence resonance energy transfer (HTRF) from (i) a fluorescence resonance energy transfer (FRET) donor (e.g., antiGST-Europium) that is bound to GST-tagged K-RasG12C to (ii) a FRET acceptor (e.g., anti-6His-XL665) bound to a His-tagged hSOS1. […] A Ras working solution is prepared in assay buffer containing typically 10 nM of the protein construct (e.g., GST-tagged hK-RasG12C) and 2 nM of the FRET donor (e.g., antiGST-Eu(K) from Cisbio, France). A SOS1 working solution is prepared in assay buffer containing typically 10 nM of the protein construct (e.g., His-hSOS1) and 10 nM of the FRET acceptor (e.g., anti-6His-XL665 from Cisbio, France). An inhibitor control solution is prepared in assay buffer containing 10 nM of the FRET acceptor without the SOS1 protein. A fixed reaction mixture with or without test compound is transferred into a 384-well plate. Ras working solution is added to all wells of the test plate. SOS1 working solution is added to all wells except for those that are subsequently filled the inhibitor control solution.

IC50, < 100 nM:
COc1nc2nc(C)nc(N[C@H](C)c3cccc(C(F)F)c3F)c2cc1C1CCN(C(=O)NC2COC2)CC1 [US11648254, Compound 116]
COc1nc2nc(C)nc(N[C@H](C)c3cccc(C(F)(F)F)c3C)c2cc1C1CCS(=O)(=O)CC1 [US11648254, Compound 118]
COc1nc2nc(C)nc(N[C@H](C)c3cccc(C(F)F)c3F)c2cc1[C@H]1C[C@@H](NC(=O)C2COC2)C1 [US11648254, Compound 125]
Cc1nc(N[C@H](C)c2cccc(C(F)F)c2F)c2cc(S(=O)(=O)C3CCN(C)CC3)c(Cl)nc2n1 [US11648254, Compound 132]
COc1nc2nc(C)nc(N[C@H](C)c3cccc(C(F)(F)C4CCCO4)c3F)c2cc1C1CCS(=O)(=O)CC1 (some centres not stated) [US11648254, Compound 148]
COc1nc2nc(C)nc(N[C@H](C)c3cccc(C(C)(F)F)c3F)c2cc1C1CCS(=O)(=O)CC1 [US11648254, Compound 150]
COCCOc1nc2nc(C)nc(N[C@H](C)c3cccc(C(F)F)c3F)c2cc1C1(C#N)CC1 [US11648254, Compound 151]
COc1nc2nc(C)nc(N[C@H](C)c3cccc(C(F)(F)C4CN(C)C4)c3)c2cc1N1CCS(=O)(=O)CC1 [US11648254, Compound 272]
Cc1nc(N[C@H](C)c2cccc(C(F)F)c2F)c2cc(C3(C#N)CC3)c(O[C@H]3CCOC3)nc2n1 [US11648254, Compound 297]
COc1nc2ncnc(N[C@H](C)c3cccc(C(F)(F)F)c3C)c2cc1C1CCS(=O)(=O)CC1 [US11648254, Compound 373]
COc1nc2ncnc(N[C@H](C)c3cccc(C(F)(F)F)c3C)c2cc1C1CCN(C2CCOCC2)CC1 [US11648254, Compound 374]
COc1nc2nc(C)nc(N[C@H](C)c3cccc(C(F)(F)C4CCN(C(C)C)CC4)c3F)c2cc1C1(C#N)CC1 [US11648254, Compound 377]
